Assay results: patent US20220304916A1, “MODIFIED BLACK SOLDIER FLY LARVAE OIL WITH MODIFIED LAURIC ACID FOR TREATMENT AGAINST BIOFILM FORMATION AND MICROORGANISM GROWTH” (BIO-BEE SDE ELIYAHU LTD, priority 2019, published 2022)

What was measured:
Format in all cases: cell-based
[1] = system: Candida albicans (CA); test: Biofilm formation, crystal violet staining; conditions: 24 h
Experimental: (§1) MBSFL oil (converted, 225, BioBee Sde Eliyahu Ltd, lot 0095-0098.181210-181227) was compared to BSFL oil (before conversion, 215, BioBee Sde Eliyahu Ltd, lot 0030.111217), lauric acid 98% (Sigma-Aldrich, denoted LA) and chlorhexidine acetate (Steinberg, denoted CHX), were analyzed as antimicrobial and anti-biofilm-formation agents in vitro, with respect to Pseudomonas aeruginosa (Gram negative, denoted PA01), Staphylococcus aureus (ATCC, American Type Culture Collection) (Gram positive, denoted SA), Streptococcus mutans (ATCC) (Gram positive, denoted SM), Lactobacillus (ATCC) (Gram positive, denoted L), Candida albicans (ATCC) (yeast, denoted CA) and Candida glabrata (ATCC) (yeast, denoted CG).
(§2) Microbial stocks of the Biofilm Research Laboratory were grown from frozen stock: SM at overnight 37° C. in BHI (brain heart infusion) broth medium in an atmosphere of 5% CO2; L at 37° C. in MRS (de Man, Rogosa and Sharpe) broth medium in an atmosphere of 5% CO2; PAO1 and SA at 37° C. in TSB (Trypticase soy broth) medium; CA and CG at 37° C. in RPMI (Roswell Park Memorial Institute) medium.
(§3) BSFL oil and MBSFL oil were prepared in DDW by heating at 100° C. LA was prepared at 50% Ethanol/50% DDW (doubly distillated water) and heated constantly to prevent solidifying in the tube. Maximum concentration of tested agents was the same (2.7% of lauric acid content). CHX was prepared in DDW
(§4) To examine the effects of MBSFL oil on biofilm formation by the microorganisms, assays for all of the tested agents were performed as described above except of growth medium used which was MRS/BHI supplemented with 1% sucrose and TSB/RPMI supplemented with 1% glucose. After incubation for 24 h, spent media and free-floating bacteria/fungi were removed by gentle aspiration and the wells were washed twice with phosphate-buffered saline (PBS, pH 7.4). The biofilm was then quantified by crystal violet staining. Briefly, 0.02% crystal violet was added into wells for 45 min, which were then washed twice with DDW to remove unbound dye. After adding 200 μl of 30% acetic acid into each well, the plate was shaken for 10 min to release the dye and the biofilm was quantified by measuring the absorbance at 595 nm using a Genius plate reader Spectrophotometer (Tecan). Assay was performed in triplicates.

[2] = system: Pseudomonas aeruginosa (PAO1); test: Biofilm formation, crystal violet staining
Experimental: as §1, §2, §3, §4

[3] = system: Streptococcus mutans (SM); test: Biofilm formation, crystal violet staining; conditions: 24 h
Experimental: as §1, §2, §3, §4

[4] = system: Candida glabrata (CG); test: Biofilm formation, crystal violet staining
Experimental: as §1, §2, §3, §4

[5] = system: Staphylococcus aureus (SA); test: Biofilm formation, crystal violet staining; conditions: 24 h
Experimental: as §1, §2, §3, §4

[6] = system: Pseudomonas aeruginosa (PAO1); test: Viability on agar plates (MBC)
Experimental: as §1, §2, §3
(§5) To examine the effects of MBSFL oil on microorganism's viability, equal amounts (5 μl) of bacterial suspension exposed to each tested concentration of agent was plated on agar plates. Plates were incubated overnight at 37° C. Colony growth was recorded as non-affected by agent's viable bacteria. Minimal Bactericidal Concentration (MBC) was recorded as no colony growth. Minimal Fungicidal Concentration (MFC) was recorded as no fungal growth.

[7] = system: Streptococcus mutans (SM); test: Viability on agar plates (MBC)
Experimental: as §1, §2, §3, §5

[8] = system: Staphylococcus aureus (SA); test: Viability on agar plates (MBC)
Experimental: as §1, §2, §3, §5

[9] = system: Lactobacillus (L); test: Viability on agar plates (MBC)
Experimental: as §1, §2, §3, §5

[10] = system: Candida albicans (CA); test: Viability on agar plates (MFC)
Experimental: as §1, §2, §3, §5

[11] = system: Candida glabrata (CG); test: Viability on agar plates (MFC)
Experimental: as §1, §2, §3, §5

[12] = system: Candida albicans (CA); test: Planktonic growth, OD 595 nm after 24 h
Experimental: as §1, §2, §3
(§6) To examine the effects of MBSFL oil on microorganism's growth (planktonic conditions), serial 1:2 dilutions of each tested agent in appropriate medium (BSFL, MBSFL and LA from 2.7 to 0.04%; CHX from 20 μg/ml to 0.3 μg/ml) were prepared in a polystyrene flat-bottomed 96-well microplate. Wells with no compounds and those with bacteria served as positive controls. Wells with no bacteria and with compound served as blanks. An equal volume (100 μl) of the each tested bacterial and fungal suspension at optical density (OD)595=0.02 and 0.05, respectively, was added to each well. After a 24 h incubation, growth was monitored by recording the OD at 595 nm using a Genius plate reader Spectrophotometer (Tecan). The assay was performed in triplicates.

[13] = system: Pseudomonas aeruginosa (PAO1); test: Planktonic growth, OD 595 nm after 24 h
Experimental: as §1, §2, §3, §6

[14] = system: Streptococcus mutans (SM); test: Planktonic growth, OD 595 nm after 24 h
Experimental: as §1, §2, §3, §6

[15] = system: Candida glabrata (CG); test: Planktonic growth, OD 595 nm after 24 h
Experimental: as §1, §2, §3, §6

[16] = system: Staphylococcus aureus (SA); test: Planktonic growth, OD 595 nm after 24 h
Experimental: as §1, §2, §3, §6

[17] = system: Lactobacillus (L); test: Planktonic growth, OD 595 nm after 24 h
Experimental: as §1, §2, §3, §6

SMILES: CC(=O)O.CC(=O)O.NC(=N\CCCCCC/N=C(N)/N=C(\N)Nc1ccc(Cl)cc1)/N=C(\N)Nc1ccc(Cl)cc1 [CHX, chlorhexidine acetate]
- dose inhibiting biofilm formation [1]: 5 µg/mL
- dose of total inhibition of biofilm formation ([2]; PAO1 biofilm, 24 h): 10 µg/mL
- dose inhibiting biofilm formation [3]: 0.625 µg/mL
- dose inhibiting biofilm formation ([4]; 24 h): 2.5 µg/mL
- dose inhibiting biofilm formation [5]: 2.5 µg/mL
- MBC [6]: 20 µg/mL
- MBC [7]: 0.625 µg/mL
- MBC [8]: 10 µg/mL
- MBC [9]: 2.5 µg/mL
- MFC [10]: 5 µg/mL
- MFC [11]: 2.5 µg/mL
- dose inhibiting growth of CA [12]: 5 µg/mL
- dose of total inhibition of PAO1 growth [13]: 10 µg/mL
- dose inhibiting growth of SM [14]: 0.625 µg/mL
- dose inhibiting growth of CG [15]: 2.5 µg/mL
- dose inhibiting growth of SA ([16]; planktonic, 24 h): 2.5 µg/mL
- MIC [17]: 2.5 µg/mL

SMILES: CCCCCCCCCCCC(=O)O [LA, lauric acid]
- dose at which biofilm formation was almost totally inhibited [1]: 0.67%
- effect on biofilm formation (in words) ([2]; all concentrations tested): dose-dependently increased biomass
- dose of total inhibition of biofilm formation [3]: 0.16%
- effect on biofilm formation (in words) [4]: effective against biofilm formation of CG but with less impact
- dose at which biofilm formation was totally or almost totally inhibited [5]: 0.67%
- Minimal Bactericidal Concentration (MBC) [6]: exerted MBC/MFC for all tested microbes, except PAO1
- MBC [7]: 0.33%
- MBC [8]: 0.67%
- MBC [9]: 0.67%
- Minimal Fungicidal Concentration (MFC) [10]: 2.7%
- MFC [11]: 2.7%
- MIC [12]: 1.35%
- MIC [14]: 0.33%
- MIC [15]: 2.7%
- reduction of SA growth ([16]; lowest tested dose of 0.04%): 90%
- MIC [17]: 0.33%
